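All cell lines were grown in 96-well plates and treated with compound for 48 hours. GI50 marks 50% less growth. At the TGI there is no net growth.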
Legend:
Test in all cases: DTP human tumour cell line panel, 48 h; in the data active = GI50 below about 0.43 µM; inactive = the rest
786-0 renal = tested on: 786-0 renal
A498 renal = tested on: A498 renal
A549 NSCLC = tested on: A549 NSCLC
ACHN renal = tested on: ACHN renal
BT-549 breast = tested on: BT-549 breast
CAKI-1 renal = tested on: CAKI-1 renal
CCRF-CEM leukemia = tested on: CCRF-CEM leukemia
COLO 205 colon = tested on: COLO 205 colon
DU-145 prostate = tested on: DU-145 prostate
EKVX NSCLC = tested on: EKVX NSCLC
HCC-2998 colon = tested on: HCC-2998 colon
HCT-116 colon = tested on: HCT-116 colon
HCT-15 colon = tested on: HCT-15 colon
HL-60(TB) leukemia = tested on: HL-60(TB) leukemia
HOP-62 NSCLC = tested on: HOP-62 NSCLC
HS 578T breast = tested on: HS 578T breast
HT29 colon = tested on: HT29 colon
IGROV1 ovarian = tested on: IGROV1 ovarian
K-562 leukemia = tested on: K-562 leukemia
KM12 colon = tested on: KM12 colon
LOX IMVI melanoma = tested on: LOX IMVI melanoma
M14 melanoma = tested on: M14 melanoma
MALME-3M melanoma = tested on: MALME-3M melanoma
MCF7 breast = tested on: MCF7 breast
MDA-MB-231 breast = tested on: MDA-MB-231 breast
MDA-MB-435 = tested on: MDA-MB-435
MOLT-4 leukemia = tested on: MOLT-4 leukemia
NCI-H226 lung = tested on: NCI-H226 lung
NCI-H23 lung = tested on: NCI-H23 lung
NCI-H460 lung = tested on: NCI-H460 lung
NCI-H522 lung = tested on: NCI-H522 lung
NCI/ADR-RES ovarian = tested on: NCI/ADR-RES ovarian
OVCAR-3 ovarian = tested on: OVCAR-3 ovarian
OVCAR-4 ovarian = tested on: OVCAR-4 ovarian
OVCAR-5 ovarian = tested on: OVCAR-5 ovarian
OVCAR-8 ovarian = tested on: OVCAR-8 ovarian
PC-3 prostate = tested on: PC-3 prostate
RPMI-8226 leukemia = tested on: RPMI-8226 leukemia
RXF 393 renal = tested on: RXF 393 renal
SF-268 CNS = tested on: SF-268 CNS
SF-295 CNS = tested on: SF-295 CNS
SF-539 CNS = tested on: SF-539 CNS
SK-MEL-2 melanoma = tested on: SK-MEL-2 melanoma
SK-MEL-28 melanoma = tested on: SK-MEL-28 melanoma
SK-MEL-5 melanoma = tested on: SK-MEL-5 melanoma
SK-OV-3 ovarian = tested on: SK-OV-3 ovarian
SN12C renal = tested on: SN12C renal
SNB-19 CNS = tested on: SNB-19 CNS
SNB-75 CNS = tested on: SNB-75 CNS
SR leukemia = tested on: SR leukemia
SW-620 colon = tested on: SW-620 colon
T-47D breast = tested on: T-47D breast
TK-10 renal = tested on: TK-10 renal
U251 CNS = tested on: U251 CNS
UACC-257 melanoma = tested on: UACC-257 melanoma
UACC-62 melanoma = tested on: UACC-62 melanoma
UO-31 renal = tested on: UO-31 renal

COC(=O)c1c(-c2ccccc2)csc1NC(=O)c1c(-c2ccccc2)noc1C
> 21.5 µM: TGI (SF-295 CNS)
> 26.3 µM: TGI (NCI-H522 lung)
inactive: GI50 (786-0 renal) 1.34 µM | GI50 (A498 renal) > 100 µM | GI50 (A549 NSCLC) 0.568 µM | GI50 (ACHN renal) 0.995 µM | GI50 (CAKI-1 renal) 0.745 µM | GI50 (CCRF-CEM leukemia) 1.77 µM | GI50 (COLO 205 colon) 1.21 µM | GI50 (DU-145 prostate) 1.98 µM | GI50 (HCC-2998 colon) > 21 µM | GI50 (HL-60(TB) leukemia) 1.32 µM | GI50 (HOP-62 NSCLC) 4.56 µM | GI50 (HS 578T breast) > 100 µM | GI50 (IGROV1 ovarian) 3.44 µM | GI50 (KM12 colon) 0.802 µM | GI50 (M14 melanoma) 6.86 µM | GI50 (MALME-3M melanoma) > 100 µM | GI50 (MCF7 breast) 0.6 µM | GI50 (MDA-MB-231 breast) 7.66 µM | GI50 (MDA-MB-435) 1.2 µM | GI50 (MOLT-4 leukemia) 1.22 µM | GI50 (NCI-H226 lung) 1.56 µM | GI50 (NCI-H23 lung) > 29.7 µM | GI50 (NCI-H522 lung) 1.56 µM | GI50 (NCI/ADR-RES ovarian) 1.5 µM | GI50 (OVCAR-3 ovarian) 3.79 µM | GI50 (OVCAR-4 ovarian) 5.38 µM | GI50 (OVCAR-8 ovarian) 0.776 µM | GI50 (PC-3 prostate) 1.28 µM | GI50 (RPMI-8226 leukemia) 0.793 µM | GI50 (RXF 393 renal) 0.762 µM | GI50 (SF-268 CNS) 0.89 µM | GI50 (SF-295 CNS) 0.598 µM | GI50 (SF-539 CNS) 0.655 µM | GI50 (SK-MEL-28 melanoma) 1.56 µM | GI50 (SK-OV-3 ovarian) 3.08 µM | GI50 (SN12C renal) 4.06 µM | GI50 (SNB-19 CNS) 1.07 µM | GI50 (SNB-75 CNS) 3.59 µM | GI50 (SW-620 colon) 0.705 µM | GI50 (T-47D breast) 3.41 µM | GI50 (TK-10 renal) > 100 µM | GI50 (UACC-257 melanoma) > 82.9 µM | GI50 (UACC-62 melanoma) 0.78 µM | GI50 (UO-31 renal) 8.88 µM
3.97 µM: TGI (RXF 393 renal)
active: GI50 (HCT-116 colon) 0.379 µM | GI50 (HCT-15 colon) 0.0809 µM | GI50 (HT29 colon) 0.399 µM | GI50 (K-562 leukemia) 0.409 µM | GI50 (LOX IMVI melanoma) 0.24 µM | GI50 (NCI-H460 lung) 0.177 µM | GI50 (SK-MEL-5 melanoma) 0.185 µM | GI50 (SR leukemia) 0.282 µM | GI50 (U251 CNS) 0.321 µM
> 100 µM: TGI (786-0 renal) | TGI (A498 renal) | TGI (A549 NSCLC) | TGI (ACHN renal) | TGI (BT-549 breast) | TGI (CAKI-1 renal) | TGI (CCRF-CEM leukemia) | TGI (COLO 205 colon) | TGI (DU-145 prostate) | TGI (EKVX NSCLC) | TGI (HCC-2998 colon) | TGI (HCT-116 colon) | TGI (HCT-15 colon) | TGI (HL-60(TB) leukemia) | TGI (HOP-62 NSCLC) | TGI (HS 578T breast) | TGI (HT29 colon) | TGI (IGROV1 ovarian) | TGI (K-562 leukemia) | TGI (KM12 colon) | TGI (M14 melanoma) | TGI (MALME-3M melanoma) | TGI (MCF7 breast) | TGI (MDA-MB-231 breast) | TGI (MDA-MB-435) | TGI (MOLT-4 leukemia) | TGI (NCI-H226 lung) | TGI (NCI-H23 lung) | TGI (NCI-H460 lung) | TGI (NCI/ADR-RES ovarian) | TGI (OVCAR-3 ovarian) | TGI (OVCAR-4 ovarian) | TGI (OVCAR-5 ovarian) | TGI (OVCAR-8 ovarian) | TGI (PC-3 prostate) | TGI (RPMI-8226 leukemia) | TGI (SF-268 CNS) | TGI (SF-539 CNS) | TGI (SK-MEL-2 melanoma) | TGI (SK-MEL-28 melanoma) | TGI (SK-MEL-5 melanoma) | TGI (SK-OV-3 ovarian) | TGI (SN12C renal) | TGI (SNB-19 CNS) | TGI (SNB-75 CNS) | TGI (SR leukemia) | TGI (SW-620 colon) | TGI (T-47D breast) | TGI (TK-10 renal) | TGI (U251 CNS) | TGI (UACC-257 melanoma) | TGI (UACC-62 melanoma) | TGI (UO-31 renal)
3.56 µM: TGI (LOX IMVI melanoma)
